Data set [1] is filed under the species Oryctolagus cuniculus. Nature of the data set: Tested for percent inhibition of Neutral metalloprotease in rabbit chondrocytes at 1 uM concentration. The class given is cell-based.
Data set [2] is filed under the species Oryctolagus cuniculus. Nature of the data set: Tested for percent inhibition of Neutral metalloprotease in rabbit chondrocytes at 10 uM concentration. The class given is cell-based.
Data set [3] is filed under the species Rattus norvegicus. The experiment in a line: Percent inhibition of Concanavalin A stimulated cell proliferation of rat spleen lymphocytes at 0.1 uM. The data set is classed as functional.
For data set [4], the species on record is Rattus norvegicus. Nature of the data set: Percent inhibition of Concanavalin A stimulated cell proliferation of rat spleen lymphocytes at 1 uM. The class given is functional.
For data set [5], the species on record is Oryctolagus cuniculus. Nature of the data set: Tested for percent inhibition of Neutral metalloprotease in rabbit chondrocytes at 0.1 uM concentration. The class given is cell-based.
The species entered for data set [6] is Rattus norvegicus. Nature of the data set: Percent inhibition of Concanavalin A stimulated cell proliferation of rat spleen lymphocytes at 10 uM. The data set is classed as functional.
Data set [7] is filed under the species Rattus norvegicus. Nature of the data set: Percent inhibition of Concanavalin A stimulated cell proliferation of rat spleen lymphocytes at 0.01 uM. The data set is classed as functional.
Data set [8] is filed under the species Rattus norvegicus. The experiment in a line: Percent inhibition of Concanavalin A stimulated cell proliferation of rat spleen lymphocytes at 0.001 uM. The data set is classed as functional.
A short description of data set [9]: Time at which the maximum concentration is achieved. The data set is classed as ADME.
Data set [10] is filed under the species Rattus norvegicus. Nature of the data set: Percent reduction in arthritis score was measured in CP-20961 injected rats on day 16. The class given is functional. Also on record: scale not given: the % may be the effect or the level left.
Data set [11] can be described thus: Maximum concentration in plasma at Tmax. The data set is classed as ADME, organism-based.
The species named for data set [12] is Rattus norvegicus. The experiment in a line: Percent reduction in arthritis score was measured in CP-20961 injected rats; NR is no reduction. The class given is functional, organism-based.
The nature of data set [13]: Half life was evaluated. The data set is classed as ADME.
The species entered for data set [14] is Oryctolagus cuniculus. The experiment in a line: Tested for percent inhibition of Neutral metalloprotease in rabbit chondrocytes at 10 uM concentration; toxic. The data set is classed as cell-based.

For `N#CC1=C(N)OC2=C(CCc3ccccc32)C1c1cccc([N+](=O)[O-])c1` (stereo not drawn), the inhibition (as a rule, the change of the read-out against control, counted positive when it falls) in the data set listed under Oryctolagus cuniculus [1] is 76%; in the data set filed under Oryctolagus cuniculus [2], 104%; in the data set listed under Oryctolagus cuniculus [5], 39%. Also, in the data set listed under Rattus norvegicus [3], the inhibition at 0.1 µM came out at 87%. Also, the inhibition at 1 µM in the data set listed under Rattus norvegicus [4] is 95%. Besides, the inhibition at 10 µM in the data set filed under Rattus norvegicus [6] stood at 99%. For the same molecule, the inhibition at 0.01 µM in the data set filed under Rattus norvegicus [7] worked out at 58%. For the same molecule, the inhibition at 0.001 µM in the data set filed under Rattus norvegicus [8] was 29%.

For the molecule `N#CC1=C(N)Oc2c(ccc3ccccc23)C1c1cccnc1` (stereo not drawn), the inhibition in the data set listed under Oryctolagus cuniculus [1] stood at 83%; in the data set filed under Oryctolagus cuniculus [2], 100%; in the data set listed under Oryctolagus cuniculus [5], 75%. Also, the inhibition at 0.1 µM in the data set listed under Rattus norvegicus [3] stood at 89%. For the same molecule, in the data set filed under Rattus norvegicus [4], the inhibition at 1 µM turned out to be 95%. Further, in the data set listed under Rattus norvegicus [7], the inhibition at 0.01 µM was found to be 11%. In addition, the inhibition at 0.001 µM in the data set filed under Rattus norvegicus [8] amounted to 0%.

Consider `N#CC1=C(n2cccc2)Oc2c(ccc3ccccc23)C1c1cccc([N+](=O)[O-])c1` (stereo not drawn), for which the inhibition in the data set listed under Oryctolagus cuniculus [1] is -5%; in the data set filed under Oryctolagus cuniculus [2] it was 4%; in the data set listed under Oryctolagus cuniculus [5], 1%. Also, the inhibition at 0.1 µM in the data set listed under Rattus norvegicus [3] was -7%. Besides, in the data set listed under Rattus norvegicus [4], the inhibition at 1 µM is 82%. The inhibition at 10 µM in the data set filed under Rattus norvegicus [6] stood at 87%.

On to `N#CC1=C(N2C(=O)CCC2=O)Oc2c(ccc3ccccc23)C1c1cccnc1` (stereo not drawn), for which the values for the inhibition in the data set listed under Oryctolagus cuniculus [1] and in the data set filed under Oryctolagus cuniculus [2] were 17% and 25%, respectively. The Tmax (as a rule, the time from dosing to the highest level) in data set [9] was determined as 0.5 h. The Activity in the data set filed under Rattus norvegicus [10] is listed as 41%. In addition, in data set [11], the highest level (Cmax) was 55 ng/mL. The inhibition at 0.1 µM in the data set listed under Rattus norvegicus [3] was -5%. Besides, in the data set filed under Rattus norvegicus [4], the inhibition at 1 µM was 85%. Besides, in the data set listed under Rattus norvegicus [6], the inhibition at 10 µM amounted to 87%. Besides, the inhibition at 0.01 µM in the data set listed under Rattus norvegicus [7] was -6%. Besides, the inhibition at 0.001 µM in the data set filed under Rattus norvegicus [8] came to 7%.

For the molecule `N#CC1C(=O)NC2=C(CCc3ccccc32)C1c1cccc([N+](=O)[O-])c1` (stereo not drawn), the inhibition in the data set filed under Oryctolagus cuniculus [1] is 36%; in the data set listed under Oryctolagus cuniculus [2] it was 20%; in the data set listed under Oryctolagus cuniculus [5], -7%. Moreover, the inhibition at 0.1 µM in the data set filed under Rattus norvegicus [3] was found to be 6%. Besides, the inhibition at 1 µM in the data set filed under Rattus norvegicus [4] is 15%. In addition, the inhibition at 10 µM in the data set listed under Rattus norvegicus [6] came to 22%. Further, the inhibition at 0.01 µM in the data set filed under Rattus norvegicus [7] is 8%. In addition, in the data set listed under Rattus norvegicus [8], the inhibition at 0.001 µM worked out at 9%.

`N#CC1=C(N2C(=O)CCC2=O)Oc2c(ccc3ccccc23)C1c1cccc([N+](=O)[O-])c1` (stereo not drawn): the inhibition in the data set listed under Oryctolagus cuniculus [1] came to 69%; in the data set filed under Oryctolagus cuniculus [2], 86%; in the data set listed under Oryctolagus cuniculus [5], 17%. For the same molecule, the time to peak (Tmax) in data set [9] turned out to be 6 h. The Activity in the data set filed under Rattus norvegicus [10] is 48%. The peak level in data set [11] (Cmax) was 5 ng/mL. For the same molecule, the inhibition at 0.1 µM in the data set filed under Rattus norvegicus [3] is -4%. In addition, the inhibition at 1 µM in the data set listed under Rattus norvegicus [4] was found to be 87%. The inhibition at 10 µM in the data set listed under Rattus norvegicus [6] turned out to be 97%. In addition, the inhibition at 0.01 µM in the data set listed under Rattus norvegicus [7] was determined as 1%. Moreover, the inhibition at 0.001 µM in the data set filed under Rattus norvegicus [8] is 9%.

Turning to `N#CC1=C(N2C(=O)CCC2=O)Oc2c(ccc3ccccc23)C1c1ccc(F)c(Cl)c1` (stereo not drawn), the inhibition stood at 53% in the data set filed under Oryctolagus cuniculus [1], 111% in the data set filed under Oryctolagus cuniculus [2] and 26% in the data set filed under Oryctolagus cuniculus [5]. For the same molecule, the Tmax in data set [9] stood at 4 h. For the same molecule, in the data set filed under Rattus norvegicus [12], the Activity result is “No reduction”. Moreover, in data set [11], the Cmax (as a rule, the highest concentration seen after dosing) was 178 ng/mL. Also, the inhibition at 0.1 µM in the data set listed under Rattus norvegicus [3] turned out to be 10%. Moreover, the inhibition at 1 µM in the data set listed under Rattus norvegicus [4] amounted to 92%. Also, the inhibition at 10 µM in the data set listed under Rattus norvegicus [6] came to 98%. Also, the inhibition at 0.01 µM in the data set listed under Rattus norvegicus [7] was -16%. In the data set listed under Rattus norvegicus [8], the inhibition at 0.001 µM was determined as 18%.

`O=C1CC(c2cccc([N+](=O)[O-])c2)c2ccc3ccccc3c2O1` (stereo not drawn): the inhibition at 0.1 µM in the data set filed under Rattus norvegicus [3] is 9%. Further, in the data set listed under Rattus norvegicus [4], the inhibition at 1 µM came out at 2%. Further, the inhibition at 10 µM in the data set listed under Rattus norvegicus [6] amounted to 15%. Also, the inhibition at 0.01 µM in the data set filed under Rattus norvegicus [7] worked out at 6%. In addition, in the data set listed under Rattus norvegicus [8], the inhibition at 0.001 µM came to 19%.

As to `N#CC1=C(N)Oc2c(ccc3ccccc23)C1c1cccc([N+](=O)[O-])c1` (stereo not drawn), the half-life (in general, the time needed for the level to fall by half in the phase considered) in data set [13] is around 1 h. Moreover, the inhibition in the data set filed under Oryctolagus cuniculus [1] is 76%; in the data set listed under Oryctolagus cuniculus [2], 102%; in the data set filed under Oryctolagus cuniculus [5] it was 74%. Further, the inhibition at 0.1 µM in the data set listed under Rattus norvegicus [3] came out at 89%. In the data set filed under Rattus norvegicus [4], the inhibition at 1 µM stood at 95%. The inhibition at 10 µM in the data set filed under Rattus norvegicus [6] is 99%. The inhibition at 0.01 µM in the data set listed under Rattus norvegicus [7] is 73%. Moreover, the inhibition at 0.001 µM in the data set filed under Rattus norvegicus [8] came out at 33%.

As for `N#Cc1c(O)nc2c(c1-c1cccc([N+](=O)[O-])c1)CCc1ccccc1-2`, the inhibition in the data set filed under Oryctolagus cuniculus [1] came to 3%; in the data set filed under Oryctolagus cuniculus [2], 36%; in the data set filed under Oryctolagus cuniculus [5] it was 36%.

For `N#Cc1c(N)nc2c(c1-c1cccc([N+](=O)[O-])c1)CCc1ccccc1-2`, the inhibition in the data set filed under Oryctolagus cuniculus [1] amounted to 36%; in the data set filed under Oryctolagus cuniculus [2] it was 42%; in the data set listed under Oryctolagus cuniculus [5], 8%. Besides, in the data set filed under Rattus norvegicus [3], the inhibition at 0.1 µM came out at 23%. Also, the inhibition at 1 µM in the data set filed under Rattus norvegicus [4] is 23%. Further, the inhibition at 10 µM in the data set listed under Rattus norvegicus [6] stood at 46%. The inhibition at 0.01 µM in the data set listed under Rattus norvegicus [7] was 15%. In addition, the inhibition at 0.001 µM in the data set listed under Rattus norvegicus [8] came to 13%.

For `N#CC1=C(N)Oc2c(ccc3ccccc23)C1c1ccc(F)c(Cl)c1` (stereo not drawn), the inhibition in the data set filed under Oryctolagus cuniculus [14] stood at 81%; in the data set listed under Oryctolagus cuniculus [1], 111%; in the data set filed under Oryctolagus cuniculus [5], 37%. Moreover, the inhibition at 0.1 µM in the data set filed under Rattus norvegicus [3] stood at 83%. Further, in the data set listed under Rattus norvegicus [4], the inhibition at 1 µM stood at 86%. Besides, the inhibition at 10 µM in the data set filed under Rattus norvegicus [6] turned out to be 98%. The inhibition at 0.01 µM in the data set listed under Rattus norvegicus [7] came to 38%.

(Values after ChEMBL document CHEMBL1128083, “The anti-rheumatic potential of a series of 2,4-di-substituted-4H-naphtho[1,2-b]pyran-3-carbonitriles” (Bioorg Med Chem Lett, 1995).)
